This is an account of results in patent US20260216347A1, “Substituted Imidazo-Based Compounds as Ligand Directed Degraders of IRAK3” (Celgene Corporation, priority 2022, published 2026).

For orientation: pIC50 means the negative decadic logarithm of the IC50, by convention in mol/L. Read a low pIC50 as a large IC50.

The target in one assay is T1, IRAK3 (Homo sapiens, UniProt Q9Y616).
T1 construct: IRAK Endogenous HTRF Degradation Assay; endogenous in cells
T1 sequence (Q9Y616 1-596): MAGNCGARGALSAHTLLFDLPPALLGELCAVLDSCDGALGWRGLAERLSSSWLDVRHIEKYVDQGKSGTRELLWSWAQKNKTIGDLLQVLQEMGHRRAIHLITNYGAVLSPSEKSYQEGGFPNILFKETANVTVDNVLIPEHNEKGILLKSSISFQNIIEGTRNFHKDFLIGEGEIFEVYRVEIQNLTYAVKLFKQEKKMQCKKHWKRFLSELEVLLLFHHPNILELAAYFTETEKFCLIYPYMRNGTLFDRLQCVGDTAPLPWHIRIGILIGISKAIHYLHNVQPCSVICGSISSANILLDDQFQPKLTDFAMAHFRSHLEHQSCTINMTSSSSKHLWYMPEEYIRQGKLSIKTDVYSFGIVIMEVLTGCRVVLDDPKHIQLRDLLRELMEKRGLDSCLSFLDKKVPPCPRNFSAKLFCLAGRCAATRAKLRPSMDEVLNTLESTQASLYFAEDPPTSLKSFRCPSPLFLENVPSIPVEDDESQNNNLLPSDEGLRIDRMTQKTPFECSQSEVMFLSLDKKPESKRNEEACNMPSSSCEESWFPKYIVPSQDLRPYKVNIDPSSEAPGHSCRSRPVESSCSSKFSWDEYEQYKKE
Nature of the assay: IRAK3 biochemical binding assay (LanthaScreen Eu Kinase Binding, TR-FRET). The procedure:
Example B3. IRAK3 Biochemical Binding Assay
The LanthaScreen® Eu Kinase Binding assay was performed as described by the vendor (ThermoFisher Scientific Waltham, MA). Briefly, 100× solutions of compound were prepared in DMSO via serial dilution of the 10 mM stock solution in a 384-well reagent plate using 3-fold intervals to achieve final concentrations. 1 μL of the compound dilution series were added to the corresponding wells of a 384-well reagent plate containing 32.3 μL of 1× buffer (50 mM HEPES pH 7.4, […], 1 mM EGTA, 0.01% Brij-35). 5 μL of the buffer diluted compounds were transferred to the corresponding wells of a 384-well assay plate. 5 μL of 3× tracer was transferred to each well of the assay plate for a final tracer concentration of 10 nM. Finally, 5 μL of the 3×Eu-Anti-GST and IRAK3 mix was transferred to each well for a final concentration of 2 nM and 10 nM respectively. Reactions were allowed to incubate for 1 hour at room temperature. TR-FRET signal of the interaction (λex340/λem 665/λem 615) was read at room temperature with a delay time of 100 ρs and an integration time of 200 ρs using an Envision plate reader. Background corrected emission signal ratios at each compound concentration were used to calculate percentage of inhibition (% Inhibition). Plots of % Inhibition versus inhibitor concentrations were fit according to a dose-response equation (Eq. 1) to generate IC50 and Hill slope values using Dotmatics software (Dotmatics, Bishops Stortford, Hertfordshire, England).
Using these assays, IC50, Dmax, EC50, and DC50 values of the following compounds were determined. Dmax is defined as the maximum percent degradation achieved and DC50 is the concentration at which 50% degradation is achieved.

A further assay concerns the target T2, IRAK3-ePL (Homo sapiens, UniProt Q9Y616).
T2 construct: expressed in transfected cells; host or cells: 293T CRBN OE/GSPT1 G575N KI cells, lentiviral transduction, puromycin selected
Description: IRAK3-ePL overexpressing degradation assay (InCELL Hunter luminescence, dose response). It counts as cell-based. As to conditions: for IRAK3 ePL degradation Ymin: lowest percentage of target protein remaining following compound treatment; for DC50: read-out: IRAK3 ePL degradation EC50. The procedure: Example B1. IRAK3-ePL Overexpressing Degradation Assay
Stable cell lines were generated by the following protocol. 3×10^5 Lenti-X 293T cells (Clonetech) were plated in 0.8 mL of media in a 12-well plate and incubated overnight at 37° C./5% CO2. Packaging plasmid (0.4 μg, pMD), envelope plasmid (0.4 μg, pSP), and lentiviral transfer IRAK3-ePL plasmid (0.8 μg, TRAK3 sequence NM_007199.3) were mixed in 0.1 mL of Opti-MEM and incubated for 5 min. Simultaneously, 2.4 μL of Lipofectamine 2000 (Invitrogen) was added to 0.1 mL of Opti-MEM (Gibco) and incubated for 5 min. The plasmid DNA and lipofectamine were combined and the mixture was allowed to incubate for 20 min.DNA:Lipofectamine Opti-MEM mixtures were then added to previously plated cells dropwise and the cells were incubated for ~16 h at 37° C./5% CO2. Following incubation, the media was removed and 1.2 mL of fresh media was added per well. Lenti-X 293T cells were incubated for ~30 h at 37° C./5% CO2. […] Following incubation, media was removed from the Lenti-X 293T wells and passed through a […] filter. Part of the viral supernatant was used to transduce cells and the rest was stored at −80° C. Viruses were then added individually (0.5 mL virus) to each well of the 293T^CRBN OE/GSPT1 G575N KI cells, followed by addition of polybrene (10 mg/mL Millipore) to each well at a final concentration of 5.0 μg/mL. Cells were incubated for ~24 h at 37° C./5% CO2. After aspirating media off plates, cells were washed with DPBS, trypsinized and plated in a 10 cm dish in 15 mL of media and […] puromycin. Following incubation of cells for ~72 h at 37° C./5% CO2, media was aspirated off plates, and cells were washed with DPBS and trypsinized. The cells were plated in a 15 cm dish in 40 mL of media with 1.0 μg/mL Puromycin (Gibco) and incubated for ~72 h at 37° C./5% CO2. Following incubation, media was removed and cells were washed with DPBS and trypsinized. The majority of cells were resuspended in Invitrogen freezing media and stored away (~6-8×10^6 cells/vial).
IRAK3-ePL cellular dose response curve degradation assays were performed by the following protocol. Compounds to be tested were dispensed into a white 384-well tissue-culture treated plate using an acoustic liquid handler. Dilutions were prepared based on a 25 μL assay volume in duplicate 10 point 3-fold serial dilutions starting with a 10 μM dose. Negative control wells were included, which only contain 0.2% DMSO to calculate 100% signal. Positive control wells containing 30 μM Ataluren (luciferase inhibitor) were included to calculate the background signal level. All wells were backfilled to a final DMSO concentration of 0.2% to ensure DMSO uniformity across wells. IRAK3-ePL expressing cells (IRAK3-ePL Lenti-X 293T^CRBN/GSPT1 G575N) were washed, trypsinized, counted, and resuspended in fresh DMEM (Gibco) to give a cell concentration of 200,000 cells/mL. 25 μL of cells (5,000 cells/well) were dispensed into the wells of the 384-well plate prespotted with compounds in the previous step and incubated overnight at 37° C./5% CO2. Following incubation, the 384-well plate was taken out of the incubator and left at room temperature for 30 min. InCELL hunter reagent was prepared according to manufacturer's instructions (EA reagent, lysis buffer, and substrate reagent in a 1:1:4 ratio, Cat #96-0002, DiscoverX), which was added to the 384-well plate 25 μL per well. Following the incubation of the plate for 1 h at room temperature, the luminescence signal was read using a ViewLux plate reader. Data was processed and analyzed in ActivityBase software. In short, the average luminescence values of the positive control wells were subtracted from the rest of the wells for background correction, and all luminescence values were normalized to the DMSO control wells. The average value of the DMSO control wells was set to equal 100% of the relative IRAK3-ePL protein levels. […]

pIC50: −log10 of the molar value.

The molecule `Cc1cc(-c2cnc(Nc3cnn([C@H]4CC[C@H](CCN5CCC(c6ccc(C7CCC(=O)NC7=O)cc6)CC5)CC4)c3)c3nccn23)c(F)cc1F` (stereo partly drawn) [Compound 95, 3-(4-(1-(2-((trans)-4-(4-((5-(2,4-difluoro-5-methylphenyl)imidazo[1,2-a]pyrazin-8-yl)amino)-1H-pyrazol-1-yl)cyclohexyl)ethyl)piperidin-4-yl)phenyl) piperidine-2,6-dione] gave a pIC50 at IRAK3 of 7.82. Regarding `O=C1CCC(c2ccc(N3CCN(CCN4CCC(n5cc(Nc6ncc(C7CC7)n7ccnc67)cn5)CC4)CC3)cc2)C(=O)N1` (stereo not shown) [Compound 46, 3-(4-(4-(2-(4-(4-((5-cyclopropylimidazo[1,2-a]pyrazin-8-yl)amino)-1H-pyrazol-1-yl)piperidin-1-yl)ethyl)piperazin-1-yl)phenyl) piperidine-2,6-dione], at IRAK3-ePL, the “IRAK3 ePL degradation Ymin” value is reported as 24% and the DC50 stood at 0.51 nM.

In the case of `Cn1nc(C2CCC(=O)NC2=O)c2cccc(N3CCN(CCN4CCC(n5cc(Nc6ncc(C7CC7)n7ccnc67)cn5)CC4)CC3)c21` (stereo not shown) [Compound 113, 3-(7-(4-(2-(4-(4-((5-cyclopropylimidazo[1,2-a]pyrazin-8-yl)amino)-1H-pyrazol-1-yl)piperidin-1-yl)ethyl)piperazin-1-yl)-1-methyl-1H-indazol-3-yl)piperidine-2,6-dione], the negative logarithm of the IC50 (pIC50) on IRAK3 was 8.49. In the case of `Cc1cc(-c2cnc(Nc3cnn([C@H]4C[C@@H](CCN5CCN(c6ccc(C7CCC(=O)NC7=O)cc6)CC5)C4)c3)c3nccn23)c(F)cc1F` (stereo partly drawn) [Compound 96, 3-(4-(4-(2-((cis)-3-(4-((5-(2,4-difluoro-5-methylphenyl)imidazo[1,2-a]pyrazin-8-yl)amino)-1H-pyrazol-1-yl)cyclobutyl)ethyl)piperazin-1-yl)phenyl)piperidine-2,6-dione], the pIC50 at IRAK3 is 9.66. For the molecule `Cc1cc(-c2cnc(Nc3cnn(C4CCN(CCN5CCN(c6ccc(C7CCC(=O)NC7=O)cc6Cl)CC5)CC4)c3)c3nccn23)c(F)cc1F` (stereo not shown) [Compound 43, 3-(3-chloro-4-(4-(2-(4-(4-((5-(2,4-difluoro-5-methylphenyl)imdazo [1,2-a]pyrazin-8-yl)amino)-1H-pyrazol-1-yl)piperidin-1-yl)ethyl)piperazin-1-yl)phenyl) piperidine-2,6-dione], at IRAK3-ePL, the “IRAK3 ePL degradation Ymin” value was 24% and the DC50 is 2.8 nM. Consider `CN1CCOc2ccc(-c3cnc(Nc4cnn(C5CCN(CCN6CCN(c7ccc(C8CCC(=O)NC8=O)cc7)CC6)CC5)c4)c4nccn34)cc21` (stereo not shown) [Compound 48, 3-(4-(4-(2-(4-(4-((5-(4-methyl-3,4-dihydro-2H-benzo[b][1,4]oxazin-6-yl)imidazo[1,2-a]pyrazin-8-yl)amino)-1H-pyrazol-1-yl)piperidin-1-yl)ethyl)piperazin-1-yl)phenyl) piperidine-2,6-dione], for which, at IRAK3-ePL, the “IRAK3 ePL degradation Ymin” value was 24% and the DC50 is 0.77 nM. Take `O=C1CCC(c2ccc(N3CCN(CC[C@H]4CC[C@H](n5cc(Nc6ncc(C7CC7)n7ccnc67)cn5)CC4)CC3)cc2)C(=O)N1` (stereo partly drawn) [Compound 47, 3-(4-(4-(2-((trans)-4-(4-((5-cyclopropylimidazo[1,2-a]pyrazin-8-yl)amino)-1H-pyrazol-1-yl)cyclohexyl)ethyl)piperazin-1-yl)phenyl) piperidine-2,6-dione]: at IRAK3-ePL, the “IRAK3 ePL degradation Ymin” value is reported as 23% and the DC50 stood at 0.61 nM. In the case of `Cc1cc(-c2cnc(Nc3cnn(C4CCN(CCN5CCN(c6ccc(C7CCC(=O)NC7=O)cc6F)CC5)CC4)c3)c3nccn23)c(F)cc1F` (stereo not shown) [Compound 49, 3-(4-(4-(2-(4-(4-((5-(2,4-difluoro-5-methylphenyl)imdazo [1,2-a]pyrazin-8-yl)amino)-1H-pyrazol-1-yl)piperidin-1-yl)ethyl)piperazin-1-yl)-3-fluorophenyl)piper idine-2,6-dione], on IRAK3-ePL, the “IRAK3 ePL degradation Ymin” value is 24% and the DC50 was 2.4 nM.

In the case of `Cc1cc(-c2cnc(Nc3cnn([C@H]4CC[C@H](CN5CCN(c6ccc(C7CCC(=O)NC7=O)cc6)CC5)CC4)c3)c3nccn23)c(F)cc1F` (stereo partly drawn) [Compound 67, 3-(4-(4-(((trans)-4-(4-((5-(2,4-difluoro-5-methylphenyl)imidazo[1,2-a]pyrazin-8-yl)amino)-1H-pyrazol-1-yl)cyclohexyl)methyl)piperazin-1-yl)phenyl) piperidine-2,6-dione], on IRAK3-ePL, the “IRAK3 ePL degradation Ymin” value is 38% and the DC50 was 5.5 nM. Turning to `O=C1CCC(c2ccc(N3CCN(CCN4CCC(n5cc(Nc6ncc(C7=CCCC7)n7ccnc67)cn5)CC4)CC3)cc2)C(=O)N1` (stereo not shown) [Compound 68, 3-(4-(4-(2-(4-(4-((5-(cyclopent-1-en-1-yl)imidazo[1,2-a]pyrazin-8-yl)amino)-1H-pyrazol-1-yl)piperidin-1-yl)ethyl)piperazin-1-yl)phenyl) piperidine-2,6-dione], at IRAK3-ePL, the “IRAK3 ePL degradation Ymin” value came out at 24% and the DC50 was found to be 0.54 nM. As to `Cc1cc(-c2cnc(Nc3cnn([C@H]4C[C@H](CCN5CCN(c6ccc(C7CCC(=O)NC7=O)cc6)CC5)C4)c3)c3nccn23)c(F)cc1F` (stereo partly drawn) [Compound 66, 3-(4-(4-(2-((trans)-3-(4-((5-(2,4-difluoro-5-methylphenyl)imidazo[1,2-a]pyrazin-8-yl)amino)-1H-pyrazol-1-yl)cyclobutyl)ethyl)piperazin-1-yl)phenyl) piperidine-2,6-dione], at IRAK3-ePL, the “IRAK3 ePL degradation Ymin” value is 32% and the DC50 turned out to be 9.6 nM.
